Results: patent US7411066B2, “Amino methylated 2-pyridinones” (priority 2004, dated 2008)

Key:
[1] = test system: NU14 adherence to type 5637 bladder cell line; test: Infection of bladder cells in vitro (Adherence Assay); assay type: cell-based, Escherichia coli; conditions: 5637 bladder cells; untreated NU14 = 100%
Description: Infection of Bladder Cells in vitro (Adherence Assay)
The infection of bladder cells in vitro was carried out according to the following steps:
Preparation of Tissue Culture Cells (Type 5637 Bladder Cell Line)
1. Place 1 ml of RPMI/10% FBS containing 1:20 dilution of 5637 cells in each well of 24 well plate.
2. Place in incubator for 3 days or until confluent growth.
Preparation of Bacterial Cells (Strains NU14 and UTI89)
1. Inoculate 20 ml of LB containing NU14 with a single colony or a loop from a frozen stock to a 250 ml flask.
2. Static growth at 37° C. for 2 days to induce pili production.
3. Harvest cells at 4,000×g for 10 minutes.
4. Resuspend in 5 ml of PBS ([…])
Infection of Tissue Culture Cells In Vitro
1. Wash each well with PBS MgCl2/CaCl2.
2. Place 1 ml of fresh medium to each well.
3. Add 10 μl of bacterial cells to each well. Triplicate plates.
4. Spin plate at 1800 rpm for 5 minutes.
5. View under 40× to see−2-3 bacterial cells/epithelial cell.
6. Place in lower incubator for 2 hours.
7. Wash two plates 5× with PBS MgCl2/CaCl2. Lyse by addition of 0.1% sarkosyl/0.5% glucose/PBS—MgCl2/CaCl2 one set and dilute for CFU.

NU14 biofilm = test: Biofilm Assay (crystal violet stain on PVC plates); assay type: cell-based, Escherichia coli; conditions: 48 hrs at room temperature, absorbance at 600 nm; untreated NU14 = 100%
Description: The Biofilm Assay was carried out according to the following steps:
Day 1 Set Up Biofilm Growth on PVC Plates
1. Sterilize PVC plates (96-well round bottom polyvinyl chloride [PVC] plates; Falcon #353911) and PVC Lids (Falcon #353913) in tissue culture hood under UV irradiation for at least 30 min.
2. Make dilution (from overnight cultures) or suspension (from either colonies on plates or freezer stocks) of bacterial cultures. Make enough of bacterial cultures for the number of wells needed. Bacterial culture need to be very dilute: at least 1:1,000 fold dilution from overnight cultures or a small quantity from colonies or freezer stocks.
3. Add 100 μl of bacterial cultures into each well. Make sure to have 1 well with LB alone as negative control and 1 well without anything for blank.
4. Cover plates with lids and leave plates undisturbed at room temperature for 48 hrs.
Day 3 Assay Biofilm With Crystal Violet Stain
5. Prepare enough PBS (w/out Mg^2+ Ca^2+) to wash biofilm plates (need at least 3 L PBS for 1-5 plates). Could use mpH2O instead of PBS.
6. Get a clean 4 L plastic beaker. Cover the bench with a large piece of absorbent pad.
7. Fill 3 containers (large enough to dip the 96-well plates in) with PBS.
8. Start washing a biofilm plate by dumping out bacterial cultures into the beaker. (Treat contents in this beaker as biohazard. Need to bleach the content before emptying it into drain.)
9. Fill the biofilm plate in the first PBS container and shake off PBS in the beaker. Rinse the biofilm 1× in the first PBS container. Put the biofilm plate into the second PBS container and rinse 2×.
10. Put the biofilm plate in the third PBS container and let sit.
11. Proceed to wash a second biofilm plate if there are any.
12. While the second biofilm plate is in the second container, rinse the first biofilm plate 1× and remove it from PBS. Decant residual PBS by banging the plate on paper towels on the bench. Leave the plate up-side-down on a clean paper towel and let the plate dry.
13. Put the second biofilm plate into the third PBS container and let sit.
14. Proceed to wash a third biofilm plate if applicable.
15. Repeat steps 8-14 until all plates are washed.
16. Let washed biofilm plates air-dry for at least 15 min.
Crystal Violet Stain and Wash
17. Fill 4 containers (large enough to dip the 96-well plates in) with PBS.
18. With a multi-channel pipet, add 125 μl of 1% Crystal Violet (in mpH2O). Stain biofilm plates sequentially for 10 min. (not more than 15 min). Give at least 2 minute break in-between staining each plates. If more than 4 biofilm plates, might want to consider staining and washing them in batches.
19. Start washing biofilm plates as above.
20. Let the washed plates air-dry for 10 minor so. […]
24. Proceed immediately to the Plate Reader and read the absorbance of the plate at 600 nm. […]

Structure (SMILES) | Adherence Assay % of Wild Type [1] [%] | Bioflim Assay % of Wild Type (NU14 biofilm) [%]
Cc1c(-c2ccccc2)c2n(c(=O)c1CN(C)C)[C@H](C(=O)[O-])CS2.[Li+] | 97.6 | 73.1
CN(C)Cc1c(Cc2cccc3ccccc23)c(-c2ccccc2)c2n(c1=O)[C@H](C(=O)[O-])CS2.[Li+] | 21.8 | 6.9
O=C([O-])[C@@H]1CSc2c(-c3ccccc3)c(Cc3cccc4ccccc34)c(CN3CCOCC3)c(=O)n21.[Li+] | 14.3 | 6.8
O=C([O-])[C@@H]1CSc2c(C3CC3)c(Cc3cccc4ccccc34)c(CN3CCOCC3)c(=O)n21.[Li+] | 12.2 | 8.3
